Earlier results as cited in patent US20210386367A1, “DEVICES AND SYSTEMS FOR GASTROINTESTINAL MICROBIOME DETECTION AND MANIPULATION” (Progenity, Inc., priority 2018, published 2021).
Values after ≈ are worked out from the molar mass of the structure shown. Where two headings read alike, the source gives them in different places.

Tests used:
Details in all cases: cited from earlier work
[1] = system: Enterobacter spp.
[2] = system: Enterobacteriaceae
[3] = system: Bacteroides spp
[4] = system: Bacteroides vulgatus
[5] = system: Escherichia coli
[6] = system: Bacteroides ovatus
[7] = system: Bacteroides thetaiotaomicron
[8] = system: Proteus mirabilis
[9] = system: Klebsiella spp.
[10] = system: Enterobacter spp.; remark: listed apart in the source
[11] = system: Prevotella melanogenica
[12] = system: Veillonella spp
[13] = system: Escherichia coli; remark: listed apart in the source
[14] = system: Fusobacterium spp
[15] = system: Fusobacterium nucleatum
[16] = system: Staphylococcus aureus

CO[C@H]1/C=C/O[C@@]2(C)Oc3c(C)c(O)c4c(O)c(c5c(nc6cc(C)ccn65)c4c3C2=O)NC(=O)/C(C)=C\C=C\[C@H](C)[C@H](O)[C@@H](C)[C@@H](O)[C@@H](C)[C@H](OC(C)=O)[C@@H]1C [rifaximin]
% S [1]: 34.8%
MIC50 [1]: 64 µg/mL (≈ 81.4 µM)
MIC90 [1]: 128 µg/mL (≈ 163 µM)
MIC range [1]: 32 to 128 µg/mL
MIC50 [2]: 32 µg/mL (≈ 40.7 µM)
MIC90 [2]: >128 µg/mL
MIC50 [3]: >1024 µg/mL
MIC90 [3]: >1024 µg/mL
MIC50 [4]: 0.25 µg/mL (≈ 0.318 µM)
MIC90 [4]: 0.5 µg/mL (≈ 0.636 µM)
MIC range [4]: 0.25 to 4 µg/mL
% S [5]: 85.4%
MIC50 [5]: 16 µg/mL (≈ 20.4 µM)
MIC90 [5]: 64 µg/mL (≈ 81.4 µM)
MIC range [5]: 4 to 64 µg/mL
MIC50 [6]: 1 µg/mL (≈ 1.27 µM)
MIC90 [6]: 1 µg/mL (≈ 1.27 µM)
MIC50 [7]: 1 µg/mL (≈ 1.27 µM)
MIC90 [7]: >1024 µg/mL

C[C@@H](O)[C@H]1C(=O)N2C(C(=O)O)=C(S[C@@H]3CN[C@H](C(=O)N(C)C)C3)[C@H](C)[C@H]12 [meropenem]
% S [8]: 99.4%
MIC50 [8]: 0.06 µg/mL (≈ 0.156 µM)
MIC90 [8]: 0.12 µg/mL (≈ 0.313 µM)
% S [9]: 78.3%
MIC50 [9]: ≤0.06 µg/mL
MIC90 [9]: >8 µg/mL
% S [10]: 57.5%
MIC50 [10]: 0.5 µg/mL (≈ 1.3 µM)
MIC90 [10]: 64 µg/mL (≈ 167 µM)
% S [11]: 100%
MIC50 [11]: 0.06 µg/mL (≈ 0.156 µM)
MIC90 [11]: 0.25 µg/mL (≈ 0.652 µM)
MIC range [11]: ≤0.03 to 0.25 µg/mL

CO/N=C(\C(=O)N[C@@H]1C(=O)N2C(C(=O)O)=C(CSc3nc(=O)c(=O)[nH]n3C)CS[C@H]12)c1csc(N)n1 [ceftriaxone]
% S [12]: 79%
MIC50 [12]: 4 µg/mL (≈ 7.21 µM)
MIC90 [12]: 8 µg/mL (≈ 14.4 µM)
MIC range [12]: 0.03 to 8 µg/mL
% S [13]: 87%
MIC50 [13]: ≤0.25 µg/mL
MIC90 [13]: 32 µg/mL (≈ 57.7 µM)
% S [14]: 87%
MIC50 [14]: 0.5 µg/mL (≈ 0.902 µM)
MIC90 [14]: 32 µg/mL (≈ 57.7 µM)
% S [15]: 100%
MIC50 [15]: 0.125 µg/mL (≈ 0.225 µM)
MIC90 [15]: 0.5 µg/mL (≈ 0.902 µM)
MIC range [15]: 0.015 to 1 µg/mL
% S [16]: 54.5%
MIC50 [16]: 4 µg/mL (≈ 7.21 µM)
MIC90 [16]: >8 µg/mL
